Assay results taken from patent publication US11965039B2, “Compstatin analogues and their medical uses” (priority 2018, dated 2024).
Values belong to the molecule of their own block, whether it stands above or below them. Starred links: 1 amine or outer side, 2 acyl side, 3 side chain; linkers in the order of their positions; H or OH if unused. Positions of bridges follow the written chain, without caps; N, C: chain ends. Non-standard residues stand in square brackets, D forms with d. Residues, ends and D or L forms follow the SMILES beside them. Groups on a side chain read outwards from the residue. *: point of attachment. Trp(1-Me) = Cn1cc(C[C@H](N)C(=O)O)c2ccccc21; C18 diacid = O=C(O)CCCCCCCCCCCCCCCCC(=O)*; C16 diacid = O=C(O)CCCCCCCCCCCCCCC(=O)*; γGlu = O=C(O)[C@H](CCC(=O)[*:2])N[*:1]; AEEA = NCCOCCOCC(=O)O; Sar = CNCC(=O)O

Columns and labels:
[1] = tested on: classical complement pathway; experiment: In vitro haemolysis assay (inhibition of classical complement pathway); type: cell-based, human; details: human serum, sensitized sheep red blood cells; Table 3, given as upper bounds; read-out: IC50, inhibition of hemolysis
Outline: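 Compound dilutions preincubated 15 min at room temperature with diluted human serum (titrated per batch for 70-90% maximal haemolysis), then antibody-sensitized sheep RBC (10^7/well) added for 30 min at 37 °C in Tris/casein buffer, pH 7.4. Stopped with EDTA; haemolysis read at 405 nm; IC50 by 4PL fit.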

[2] = tested on: alternative complement pathway; experiment: Ex vivo alternative pathway complement activity (WIESLAB kit) after s.c. dosing in non-human primates; design: species or system Cynomolgus monkeys (Macaca fascicularis); details: NHP, subcutaneous 1840 nmol/kg, FIG. 1a-f
Experimental: FIG. 1(a-f): Normalized “ex vivo” activity of the alternative complement pathway over time after administration of a test compound at time 0 to one or two non-human primates. Compounds were given subcutaneously at a dose of 1840 nmol/kg. Complement activity (alternative pathway) was measured using the Wieslab kit. Activity was normalized using the predose (0) sample (set to 100%) and the negative control included in the kit. Normalized activity or average normalized activity for both animals and standard deviation is shown.
(§1) Healthy male Cynomolgus monkeys (Macaca fascicularis) received single subcutaneous administrations of each test substance. Compounds were formulated in 20 mM phosphate adjusted with NaOH to pH 7.5 and mannitol for isotonicity and dosed at 1840 nmol/kg. Blood was collected from a femoral vein from each animal at the following times: Pre-dose, 1, 2, 4, 8, 24, 48, 72, 96 and 120 h (10 sampling times). Blood was collected into serum separation tubes and allowed to clot at room temperature. The tubes were centrifuged and resulting serum was aliquoted and snap-frozen over dry-ice and stored at nominally −80° C. until analysis. All NHP studies were performed in accordance with animal welfare laws and regulations, including approval of the study by a local ethical review process.
Serum isolated from non-human primates at specific time points after dosing were analyzed for alternative pathway complement activity using the Complement system Alternative Pathway WIESLAB® kit from Svar Life Science (previously Euro diagnostic AB, Sweden) following the manufacturer's protocol. Briefly, serum samples or controls were diluted in buffer and incubated in microtitre strips coated with specific activators of the alternative pathway. The wells were washed and formed C5b-9 was detected using included colorimetric reagents. Absorbance at 405 nm was measured. The percent activity of the alternative complement pathway was calculated for each animal and timepoint relative to the pre-dose activity (0 hours) of the individual animal with subtraction of the negative control. […]

[3] = Solubility test at 10 mg/mL (visual inspection and light scattering); type: physicochemical; details: for Solubility, Condition 1: Acetate pH 4; for Solubility, Condition 2: Acetate pH 5; for Solubility, Condition 3: Phosphate pH 6; for Solubility, Condition 4: Phosphate pH 7; for Solubility, Condition 5: Phosphate pH 7.5
[4] = Pharmacokinetic half-life in non-human primates (serum, LC-MS/MS); type: in vivo, Cynomolgus monkeys (Macaca fascicularis); details: male, cynomolgus monkey, sc, NHP, single subcutaneous dose 1840 nmol/kg, * = approximate determination
Experimental: as §1
In order to assess pharmacokinetic half-life (t ½), serum samples isolated from non-human primates at specific time points after dosing were analysed for total drug compound after sample preparation by solid phase extraction (SPE) and liquid chromatography mass spectrometry (LC-MS/MS) using analogue internal standard. Single measurement of serum concentrations were used for calculation of the pharmacokinetic parameters using the non-compartmental approach in Phoenix WinNonlin 6.3. Plasma terminal elimination half-life (t½) was determined as In(2)/λz where λz is the magnitude of the slope of the log linear regression of the log concentration versus time profile during the terminal phase.

SMILES: CC[C@H](C)[C@H](NC(=O)[C@H](N)Cc1ccc(O)cc1)C(=O)N[C@H]1CSSC[C@@H](C(=O)N(C)[C@H](C(N)=O)[C@@H](C)CC)NC(=O)[C@H](CCCNC(=N)N)NC(=O)[C@H](Cc2c[nH]cn2)NC(=O)[C@H](C)NC(=O)CN(C)C(=O)[C@H](Cc2c[nH]c3ccccc23)NC(=O)[C@H](CC(=O)O)NC(=O)[C@H](CCC(N)=O)NC(=O)[C@H](Cc2cn(C)c3ccccc23)NC(=O)[C@H](C(C)C)NC1=O [Cp40, H-{d}YIC(1)V[1-Me-Trp]QDW[Sar]AHRC(1)[N-Me-Ile]-NH2, reference compound]
IC50 [1]: < 100 nM
duration of action (alternative pathway complement activity) [2]: relatively short duration of action

SMILES: CC[C@H](C)[C@@H]1NC(=O)[C@@H](NC(=O)[C@H](Cc2ccc(O)cc2)NC(=O)[C@H](C)NC(=O)[C@H](CO)NC(C)=O)CSSC[C@@H](C(=O)N(C)CC(=O)N[C@@H](CCC(=O)O)C(=O)N[C@@H](CCCCNC(=O)CC[C@H](NC(=O)CNC(=O)CC[C@H](NC(=O)CCCCCCCCCCCCCCCCC(=O)O)C(=O)O)C(=O)O)C(N)=O)NC(=O)[C@H](CCCNC(=N)N)NC(=O)[C@H](Cc2c[nH]cn2)NC(=O)[C@H](CCC(=O)O)NC(=O)CNC(=O)[C@H](Cc2c[nH]c3ccccc23)NC(=O)[C@H](CC(=O)O)NC(=O)[C@H](CCC(N)=O)NC(=O)[C@H](Cc2cn(C)c3ccccc23)NC1=O [Compound 106] (Ac-SAYCI[Trp(1-Me)]QDWGEHRC[Sar]EK([γGlu-Gly-γGlu-C18 diacid])-NH2; disulfide 4-14)
IC50 [1]: < 250 nM
half-life [4]: ~93.9 h

SMILES: CC[C@H](C)[C@@H]1NC(=O)[C@@H](NC(=O)[C@H](Cc2ccc(O)cc2)NC(=O)[C@H](C)NC(=O)[C@H](CO)NC(=O)CNC(=O)[C@H](CCC(=O)O)NC(C)=O)CSSC[C@@H](C(=O)N(C)CC(=O)N[C@@H](CCC(=O)O)C(=O)NCC(=O)N[C@@H](CCCCNC(=O)COCCOCCNC(=O)COCCOCCNC(=O)CC[C@H](NC(=O)CCCCCCCCCCCCCCC(=O)O)C(=O)O)C(N)=O)NC(=O)[C@H](CCCNC(=N)N)NC(=O)[C@H](Cc2c[nH]cn2)NC(=O)[C@H](CCC(=O)O)NC(=O)CNC(=O)[C@H](Cc2c[nH]c3ccccc23)NC(=O)[C@H](CC(=O)O)NC(=O)[C@H](CCC(N)=O)NC(=O)[C@H](Cc2cn(C)c3ccccc23)NC1=O [Compound 104] (Ac-EGSAYCI[Trp(1-Me)]QDWGEHRC[Sar]EGK([AEEA-AEEA-γGlu-C16 diacid])-NH2; disulfide 6-16)
IC50 [1]: < 100 nM
Solubility, Condition 1 [3]: − (“−” denotes lack of solubility at the given condition, as UV absorbance at 340 nm exceeds 0.1 AU and/or it is visibly turbid or contains particles)
Solubility, Condition 2 [3]: + (“+” denotes solubility at the given condition, as determined by UV absorbance being less than 0.1 AU at 340 nm and the sample being clear when manually inspected)
Solubility, Condition 3 [3]: + (“+” denotes solubility at the given condition, as determined by UV absorbance being less than 0.1 AU at 340 nm and the sample being clear when manually inspected)
Solubility, Condition 4 [3]: + (“+” denotes solubility at the given condition, as determined by UV absorbance being less than 0.1 AU at 340 nm and the sample being clear when manually inspected)
Solubility, Condition 5 [3]: + (“+” denotes solubility at the given condition, as determined by UV absorbance being less than 0.1 AU at 340 nm and the sample being clear when manually inspected)
half-life [4]: ~96.3 h

More lines, main results first:

half-life [4]: ~78.7 h
SMILES: CC[C@H](C)[C@@H]1NC(=O)[C@@H](NC(=O)[C@H](Cc2ccc(O)cc2)NC(=O)[C@H](CCC(=O)O)NC(=O)[C@H](CO)NC(C)=O)CSSC[C@@H](C(=O)N(C)CC(=O)N[C@@H](CCC(=O)O)C(=O)NCC(=O)N[C@@H](C)C(=O)N[C@@H](CCCCNC(=O)COCCOCCNC(=O)CC[C@H](NC(=O)COCCOCCNC(=O)CNC(=O)CC[C@H](NC(=O)CCCCCCCCCCCCCCCCC(=O)O)C(=O)O)C(=O)O)C(N)=O)NC(=O)[C@H](CCCNC(=N)N)NC(=O)[C@H](Cc2c[nH]cn2)NC(=O)[C@H](CCC(=O)O)NC(=O)CNC(=O)[C@H](Cc2c[nH]c3ccccc23)NC(=O)[C@H](CC(=O)O)NC(=O)[C@H](CCC(N)=O)NC(=O)[C@H](Cc2cn(C)c3ccccc23)NC1=O [Compound 118] (Ac-SEYCI[Trp(1-Me)]QDWGEHRC[Sar]EGAK([AEEA-γGlu-AEEA-Gly-γGlu-C18 diacid])-NH2; disulfide 4-14)
IC50 [1]: < 100 nM
Solubility, Condition 1 [3]: − (“−” denotes lack of solubility at the given condition, as UV absorbance at 340 nm exceeds 0.1 AU and/or it is visibly turbid or contains particles)
Solubility, Condition 2 [3]: + (“+” denotes solubility at the given condition, as determined by UV absorbance being less than 0.1 AU at 340 nm and the sample being clear when manually inspected)
Solubility, Condition 3 [3]: + (“+” denotes solubility at the given condition, as determined by UV absorbance being less than 0.1 AU at 340 nm and the sample being clear when manually inspected)
Solubility, Condition 4 [3]: + (“+” denotes solubility at the given condition, as determined by UV absorbance being less than 0.1 AU at 340 nm and the sample being clear when manually inspected)
Solubility, Condition 5 [3]: + (“+” denotes solubility at the given condition, as determined by UV absorbance being less than 0.1 AU at 340 nm and the sample being clear when manually inspected)

half-life [4]: ~157 h
SMILES: CC[C@H](C)[C@@H]1NC(=O)[C@@H](NC(=O)[C@H](Cc2ccc(O)cc2)NC(=O)[C@H](C)NC(=O)[C@H](CO)NC(=O)CNC(=O)[C@H](CCC(=O)O)NC(C)=O)CSSC[C@@H](C(=O)N(C)CC(=O)N[C@@H](CCC(=O)O)C(=O)N[C@@H](CCCCN)C(=O)N[C@@H](CCC(=O)N[C@@H](CCCCNC(=O)COCCOCCNC(=O)COCCOCCNC(=O)CC[C@H](NC(=O)CCCCCCCCCCCCCCCCC(=O)O)C(=O)O)C(N)=O)C(=O)O)NC(=O)[C@H](CCCNC(=N)N)NC(=O)[C@H](Cc2c[nH]cn2)NC(=O)[C@H](CCC(=O)O)NC(=O)CNC(=O)[C@H](Cc2c[nH]c3ccccc23)NC(=O)[C@H](CC(=O)O)NC(=O)[C@H](CCC(N)=O)NC(=O)[C@H](Cc2cn(C)c3ccccc23)NC1=O [Compound 111] (Ac-EGSAYCI[Trp(1-Me)]QDWGEHRC[Sar]EK[γGlu]K([AEEA-AEEA-γGlu-C18 diacid])-NH2; disulfide 6-16)
IC50 [1]: < 100 nM
Solubility, Condition 1 [3]: − (“−” denotes lack of solubility at the given condition, as UV absorbance at 340 nm exceeds 0.1 AU and/or it is visibly turbid or contains particles)
Solubility, Condition 2 [3]: − (“−” denotes lack of solubility at the given condition, as UV absorbance at 340 nm exceeds 0.1 AU and/or it is visibly turbid or contains particles)
Solubility, Condition 3 [3]: + (“+” denotes solubility at the given condition, as determined by UV absorbance being less than 0.1 AU at 340 nm and the sample being clear when manually inspected)
Solubility, Condition 4 [3]: + (“+” denotes solubility at the given condition, as determined by UV absorbance being less than 0.1 AU at 340 nm and the sample being clear when manually inspected)
Solubility, Condition 5 [3]: + (“+” denotes solubility at the given condition, as determined by UV absorbance being less than 0.1 AU at 340 nm and the sample being clear when manually inspected)
